Each compound was assayed against T1, IGF-1R (Homo sapiens, UniProt P08069) (assay: Example B-2: IGF-1R Assay (PathHunter cell lines, EC80 agonist challenge, chemiluminescent detection)). Details: PathHunter cells, compound 60 minutes at 37° C., EC80 agonist 3 hours; read-out: IC50, Biological Activity against IGF-1R (Table B2).
T1 construct: expressed in transfected cells
Assay type: cell-based
Procedure, shortened: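 PathHunter cells were pre-incubated with compound for 60 min at 37° C (1% vehicle), then challenged with EC80 agonist for 3 h at room temperature. Chemiluminescent detection after 1 h gave % inhibition relative to EC80 and vehicle controls, from which IC50 was derived.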

T1 sequence (P08069 31-1367): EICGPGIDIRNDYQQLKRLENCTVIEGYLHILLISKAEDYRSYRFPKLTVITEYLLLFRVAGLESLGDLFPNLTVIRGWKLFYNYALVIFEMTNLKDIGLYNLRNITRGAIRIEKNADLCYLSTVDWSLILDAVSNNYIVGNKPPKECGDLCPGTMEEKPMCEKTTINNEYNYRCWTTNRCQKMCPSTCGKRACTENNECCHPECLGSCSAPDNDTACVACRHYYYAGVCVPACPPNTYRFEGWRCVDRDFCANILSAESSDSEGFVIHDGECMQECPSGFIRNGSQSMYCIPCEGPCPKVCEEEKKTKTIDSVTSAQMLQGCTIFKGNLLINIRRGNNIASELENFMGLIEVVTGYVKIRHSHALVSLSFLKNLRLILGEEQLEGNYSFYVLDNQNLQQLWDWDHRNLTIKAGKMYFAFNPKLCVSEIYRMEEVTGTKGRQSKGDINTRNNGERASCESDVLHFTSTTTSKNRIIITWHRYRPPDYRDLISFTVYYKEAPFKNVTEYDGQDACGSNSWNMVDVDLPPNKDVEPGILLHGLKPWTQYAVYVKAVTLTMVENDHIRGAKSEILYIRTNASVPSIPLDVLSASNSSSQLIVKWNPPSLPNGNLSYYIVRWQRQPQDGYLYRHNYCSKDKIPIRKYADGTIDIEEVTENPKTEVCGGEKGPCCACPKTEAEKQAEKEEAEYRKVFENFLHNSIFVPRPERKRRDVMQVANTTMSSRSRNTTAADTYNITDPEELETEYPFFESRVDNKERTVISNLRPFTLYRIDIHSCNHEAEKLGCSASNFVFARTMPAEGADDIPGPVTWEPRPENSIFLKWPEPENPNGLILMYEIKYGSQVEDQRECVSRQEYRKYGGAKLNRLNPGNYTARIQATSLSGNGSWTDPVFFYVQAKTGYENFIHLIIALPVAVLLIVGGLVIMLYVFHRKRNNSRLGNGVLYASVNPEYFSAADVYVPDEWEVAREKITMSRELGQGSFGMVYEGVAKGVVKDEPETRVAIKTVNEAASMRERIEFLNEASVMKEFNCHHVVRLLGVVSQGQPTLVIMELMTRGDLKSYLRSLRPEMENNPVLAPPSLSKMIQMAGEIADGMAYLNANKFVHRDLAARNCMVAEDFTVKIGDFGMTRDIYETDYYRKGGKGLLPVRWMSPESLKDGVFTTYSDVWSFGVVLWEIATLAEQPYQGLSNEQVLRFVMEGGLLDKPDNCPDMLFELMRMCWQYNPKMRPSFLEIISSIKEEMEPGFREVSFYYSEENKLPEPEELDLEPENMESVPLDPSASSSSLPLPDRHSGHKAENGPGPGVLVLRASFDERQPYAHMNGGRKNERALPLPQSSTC

Compared with CC1(C)C(=O)N(c2ccc(OC(F)(F)F)c(C#N)c2)C(=O)N1Cc1ccnc2c1CC(=O)N2 [Compound 288, 5-(4,4-dimethyl-2,5-dioxo-3-((2-oxo-2,3-dihydro-1H-pyrrolo[2,3-b]pyridin-4-yl)methyl)imidazolidin-1-yl)-2-(trifluoromethoxy)benzonitrile], CC1(C)C(=O)N(c2ccc(OC(F)(F)F)c(F)c2)C(=O)N1Cc1ccnc2c1CC(=O)N2 [Compound 286, 3-(3-fluoro-4-(trifluoromethoxy)phenyl)-5,5-dimethyl-1-((2-oxo-2,3-dihydro-1H-pyrrolo[2,3-b]pyridin-4-yl)methyl)imidazolidine-2,4-dione] is lower in IC50: greater than 10000 nM for the first, 2000 to 10000 nM for the second. The second is the more potent here.

C[C@H](CC#N)Nc1cc(CN2C(=O)N(c3ccc(C4(C(F)(F)F)CC4)cc3)C(=O)C2(C)C)ccn1 [Compound 147, (R)-3-((4-((5,5-dimethyl-2,4-dioxo-3-(4-(1-(trifluoromethyl)cyclopropyl)phenyl)imidazolidin-1-yl)methyl)pyridin-2-yl)amino)butanenitrile] and CC1(C)C(=O)N(c2ccc(C3(C(F)(F)F)CC3)cc2)C(=O)N1Cc1ccnc(NCc2cc[nH]n2)c1 [Compound 184, 1-((2-(((1H-pyrazol-3-yl)methyl)amino)pyridin-4-yl)methyl)-5,5-dimethyl-3-(4-(1-(trifluoromethyl)cyclopropyl)phenyl) imidazolidine-2,4-dione] cannot be ordered by IC50: no more than 500 nM for the first, no more than 500 nM for the second.

CC1(C)COc2cc(N3C(=O)N(Cc4ccnc(N[C@H]5[C@@H]6COC[C@@H]65)c4)C(C)(C)C3=O)ccc21 [Compound 229, 1-((2-(((1R,5S,6r)-3-oxabicyclo[3.1.0]hexan-6-yl)amino)pyridin-4-yl)methyl)-3-(3,3-dimethyl-2,3-dihydrobenzofuran-6-yl)-5,5-dimethylimidazolidine-2,4-dione] and CN1CC(C)(C)c2ccc(N3C(=O)N(Cc4ccnc(N[C@H]5CCOC5)c4)C(C)(C)C3=O)cc21 [Compound 206, (S)-5,5-dimethyl-1-((2-((tetrahydrofuran-3-yl)amino)pyridin-4-yl)methyl)-3-(1,3,3-trimethylindolin-6-yl)imidazolidine-2,4-dione] cannot be ordered by IC50: no more than 500 nM for the first, 500 to 2000 nM for the second.

CC1(Nc2cc(CN3C(=O)N(c4ccc(C(C)(C)C#N)cc4)C(=O)C3(C)C)ccn2)CC1 [Compound 155, 2-(4-(4,4-dimethyl-3-((2-((1-methylcyclopropyl)amino)pyridin-4-yl)methyl)-2,5-dioxoimidazolidin-1-yl)phenyl)-2-methylpropanenitrile] and CC(C)(C#N)c1ccc(N2C(=O)N(Cc3ccnc(NCC(F)F)c3)C(C)(C)C2=O)cc1 [Compound 154, 2-(4-(3-((2-((2,2-difluoroethyl)amino)pyridin-4-yl)methyl)-4,4-dimethyl-2,5-dioxoimidazolidin-1-yl)phenyl)-2-methylpropanenitrile] cannot be ordered by IC50: no more than 500 nM for the first, 500 to 2000 nM for the second.

First: CC(C)(C)Cn1ccc(N2C(=O)N(Cc3ccnc4c3CC(=O)N4)C(C)(C)C2=O)cc1=O [Compound 79, 5,5-dimethyl-3-(1-neopentyl-2-oxo-1,2-dihydropyridin-4-yl)-1-((2-oxo-2,3-dihydro-1H-pyrrolo[2,3-b]pyridin-4-yl)methyl)imidazolidine-2,4-dione]
Second: CC(C)(C)c1ccc(N2C(=O)N(Cc3ccnc4c3CC(=O)N4)C(C)(C)C2=O)cc1 [Compound 36, 3-(4-(tert-butyl)phenyl)-5,5-dimethyl-1-((2-oxo-2,3-dihydro-1H-pyrrolo[2,3-b]pyridin-4-yl)methyl)imidazolidine-2,4-dione]
The IC50 of the first is higher: greater than 10000 nM for the first, no more than 500 nM for the second.

COC[C@@H]1COc2c(CN3C(=O)N(c4ccc(C5(C(F)(F)F)CC5)cc4)C(=O)C3(C)C)ccnc2N1 [Compound 72, (R)-1-((3-(methoxymethyl)-3,4-dihydro-2H-pyrido[3,2-b][1,4]oxazin-8-yl)methyl)-5,5-dimethyl-3-(4-(1-(trifluoromethyl)cyclopropyl)phenyl) imidazolidine-2,4-dione] and C[C@@H]1CNc2nccc(CN3C(=O)N(c4ccc(C5(C(F)(F)F)CC5)cc4)C(=O)C3(C)C)c2O1 [Compound 27, (R)-5,5-dimethyl-1-((2-methyl-3,4-dihydro-2H-pyrido[3,2-b][1,4]oxazin-8-yl)methyl)-3-(4-(1-(trifluoromethyl)cyclopropyl)phenyl) imidazolidine-2,4-dione] cannot be ordered by IC50: no more than 500 nM for the first, no more than 500 nM for the second.

CC1(C)C(=O)N(c2ccc3c(c2)N(S(C)(=O)=O)CC32CCC2)C(=O)N1Cc1ccnc(NCC2CCOC2)c1 (centres unmarked) [Compound 226, 5,5-dimethyl-3-(1′-(methylsulfonyl)spiro[cyclobutane-1,3′-indolin]-6′-yl)-1-((2-(((tetrahydrofuran-3-yl)methyl)amino)pyridin-4-yl)methyl)imidazolidine-2,4-dione] and CC1(C)C(=O)N(c2ccc3c(c2)N(S(C)(=O)=O)CC32CCC2)C(=O)N1Cc1ccnc(NC2CCOCC2)c1 [Compound 211, 5,5-dimethyl-3-(1′-(methylsulfonyl)spiro[cyclobutane-1,3′-indolin]-6′-yl)-1-((2-((tetrahydro-2H-pyran-4-yl)amino)pyridin-4-yl)methyl)imidazolidine-2,4-dione] cannot be ordered by IC50: no more than 500 nM for the first, no more than 500 nM for the second.

First: CC(C)Nc1cc(CN2C(=O)N(c3cnc4c(c3)OCC4(C)C)C(=O)C2(C)C)ccn1 [Compound 193, 3-(3,3-dimethyl-2,3-dihydrofuro[3,2-b]pyridin-6-yl)-1-((2-(isopropylamino)pyridin-4-yl)methyl)-5,5-dimethylimidazolidine-2,4-dione]
Second: COCCOC[C@@H](C)Nc1cc(CN2C(=O)N(c3ccc4c(c3)N(S(C)(=O)=O)CC4(C)C)C(=O)C2(C)C)ccn1 [Compound 224, (R)-3-(3,3-dimethyl-1-(methylsulfonyl)indolin-6-yl)-1-((2-((1-(2-methoxyethoxy)propan-2-yl)amino)pyridin-4-yl)methyl)-5,5-dimethylimidazolidine-2,4-dione]
The IC50 of the first is higher: 2000 to 10000 nM for the first, no more than 500 nM for the second.

CC1(C)C(=O)N(c2ccc3c(c2)N(S(C)(=O)=O)CC32CCC2)C(=O)N1Cc1ccnc2c1CC(=O)N2 [Compound 43, 5,5-dimethyl-3-(1′-(methylsulfonyl)spiro[cyclobutane-1,3′-indolin]-6′-yl)-1-((2-oxo-2,3-dihydro-1H-pyrrolo[2,3-b]pyridin-4-yl)methyl)imidazolidine-2,4-dione] and CC1(C)CN(S(C)(=O)=O)c2cc(N3C(=O)N(Cc4ccnc5c4CC(=O)N5)C(C)(C)C3=O)ccc21 [Compound 37, 3-(3,3-dimethyl-1-(methylsulfonyl)indolin-6-yl)-5,5-dimethyl-1-((2-oxo-2,3-dihydro-1H-pyrrolo[2,3-b]pyridin-4-yl)methyl)imidazolidine-2,4-dione] cannot be ordered by IC50: no more than 500 nM for the first, no more than 500 nM for the second.

CC(C)(C#N)c1ccc(N2C(=O)N(Cc3ccnc(NC4CCOCC4)c3)C(C)(C)C2=O)cc1 [Compound 153, 2-(4-(4,4-dimethyl-2,5-dioxo-3-((2-((tetrahydro-2H-pyran-4-yl)amino)pyridin-4-yl)methyl)imidazolidin-1-yl)phenyl)-2-methylpropanenitrile] and COCCS(=O)(=O)N1CC(C)(C)c2ccc(N3C(=O)N(Cc4ccnc(NC5CCOCC5)c4)C(C)(C)C3=O)cc21 [Compound 228, 3-(1-((2-methoxyethyl)sulfonyl)-3,3-dimethylindolin-6-yl)-5,5-dimethyl-1-((2-((tetrahydro-2H-pyran-4-yl)amino)pyridin-4-yl)methyl)imidazolidine-2,4-dione] cannot be ordered by IC50: no more than 500 nM for the first, no more than 500 nM for the second.

CC(C)c1ccc(N2C(=O)N(Cc3ccnc4c3CC(=O)N4)C(C)(C)C2=O)cc1C#N [Compound 68, 5-(4,4-dimethyl-2,5-dioxo-3-((2-oxo-2,3-dihydro-1H-pyrrolo[2,3-b]pyridin-4-yl)methyl)imidazolidin-1-yl)-2-isopropylbenzonitrile] and C[C@H](Nc1cc(CN2C(=O)N(c3ccc4c(c3)N(S(C)(=O)=O)CC43CCC3)C(=O)C2(C)C)ccn1)c1cccnc1 [Compound 243, (S)-5,5-dimethyl-3-(1′-(methylsulfonyl)spiro[cyclobutane-1,3′-indolin]-6′-yl)-1-((2-((1-(pyridin-3-yl)ethyl)amino)pyridin-4-yl)methyl)imidazolidine-2,4-dione] cannot be ordered by IC50: 500 to 2000 nM for the first, no more than 500 nM for the second.

Compared with CC1(C)C(=O)N(c2ccc3c(c2)N(C(=O)C2CC2)CC32CCC2)C(=O)N1Cc1ccnc(N[C@H]2CCOC2)c1 [Compound 236, (S)-3-(1′-(cyclopropanecarbonyl)spiro [cyclobutane-1,3′-indolin]-6′-yl)-5,5-dimethyl-1-((2-((tetrahydrofuran-3-yl)amino)pyridin-4-yl)methyl)imidazolidine-2,4-dione], C[C@@H](Nc1cc(CN2C(=O)N(c3ccc(S(=O)(=O)C(F)(F)F)cc3)C(=O)C2(C)C)ccn1)[C@H]1CCCO1 [Compound 342, 5,5-dimethyl-1-((2-(((R)-1-((R)-tetrahydrofuran-2-yl)ethyl)amino)pyridin-4-yl)methyl)-3-(4-((trifluoromethyl)sulfonyl)phenyl) imidazolidine-2,4-dione] is higher in IC50: no more than 500 nM for the first, 2000 to 10000 nM for the second.

CC1(C)C(=O)N(c2ccc(C3(C(F)(F)F)CC3)cc2)C(=O)N1Cc1ccnc(NCc2nc3ccccn3n2)c1 [Compound 175, 1-((2-(([1,2,4]triazolo[1,5-a]pyridin-2-ylmethyl)amino)pyridin-4-yl)methyl)-5,5-dimethyl-3-(4-(1-(trifluoromethyl)cyclopropyl)phenyl) imidazolidine-2,4-dione] and CNS(=O)(=O)c1ccc(CNc2cc(CN3C(=O)N(c4ccc(C5(C(F)(F)F)CC5)cc4)C(=O)C3(C)C)ccn2)cc1 [Compound 172, 4-(((4-((5,5-dimethyl-2,4-dioxo-3-(4-(1-(trifluoromethyl)cyclopropyl)phenyl)imidazolidin-1-yl)methyl)pyridin-2-yl)amino)methyl)-N-methylbenzenesulfonamide] cannot be ordered by IC50: no more than 500 nM for the first, no more than 500 nM for the second.

Reference: US20250145585A1, “HETEROCYCLIC INHIBITORS OF IGF-1R FOR TREATMENT OF DISEASE” (HORIZON THERAPEUTICS IRELAND DAC, priority 2023, published 2025)
